Laboratory results reported in ChEMBL document CHEMBL5038618, “Discovery of PT-65 as a highly potent and selective Proteolysis-targeting chimera degrader of GSK3 for treating Alzheimer's disease” (Eur J Med Chem, 2021).
The source made the active and inactive calls. The calls are words filed in the database; no cut-off is given here.

Legend:
[1] = system: SH-SY5Y; assay: Downregulation of GSK3alpha expression in human SH-SY5Y cells at 62.5 to 500 nM pretreated for 2 hrs followed by Abeta42 coincubation for 72 hrs by Westernblot analysis; type: functional, cell-based; conditions: dose 62.5-500 nM, time 74.0 hrs
[2] = system: SH-SY5Y; assay: Downregulation of GSK3beta expression in human SH-SY5Y cells at 62.5 to 500 nM pretreated for 2 hrs followed by Abeta42 coincubation for 72 hrs by Westernblot analysis; type: functional, cell-based; conditions: dose 62.5-500 nM, time 74.0 hrs
[3] = target: T1, Protein cereblon/Glycogen synthase kinase-3 alpha (Homo sapiens, UniProt P49840+Q96SW2); assay: Protac activity at CRBN/GSK3alpha in human SH-SY5Y cells assessed as GSK3alpha degradation at 1 uM pretreated with pomalidomide for 2 hrs followed by compound addition and measured after 24 hrs; type: cell-based
Target sequence in this assay (P49840 2-483 limits assumed): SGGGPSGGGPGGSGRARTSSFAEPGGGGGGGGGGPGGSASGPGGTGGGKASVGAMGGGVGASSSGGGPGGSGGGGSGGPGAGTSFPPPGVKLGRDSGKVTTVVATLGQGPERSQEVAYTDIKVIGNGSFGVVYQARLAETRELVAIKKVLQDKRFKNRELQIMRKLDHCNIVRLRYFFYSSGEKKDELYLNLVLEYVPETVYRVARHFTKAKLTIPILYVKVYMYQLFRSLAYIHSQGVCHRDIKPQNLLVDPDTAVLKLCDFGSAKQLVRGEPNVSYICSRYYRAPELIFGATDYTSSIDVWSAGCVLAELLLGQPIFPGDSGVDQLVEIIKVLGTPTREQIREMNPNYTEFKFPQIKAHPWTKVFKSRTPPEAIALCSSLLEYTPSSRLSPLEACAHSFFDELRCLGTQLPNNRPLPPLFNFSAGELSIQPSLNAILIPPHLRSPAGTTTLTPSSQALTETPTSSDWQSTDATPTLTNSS
Target sequence in this assay (Q96SW2 whole entry partner): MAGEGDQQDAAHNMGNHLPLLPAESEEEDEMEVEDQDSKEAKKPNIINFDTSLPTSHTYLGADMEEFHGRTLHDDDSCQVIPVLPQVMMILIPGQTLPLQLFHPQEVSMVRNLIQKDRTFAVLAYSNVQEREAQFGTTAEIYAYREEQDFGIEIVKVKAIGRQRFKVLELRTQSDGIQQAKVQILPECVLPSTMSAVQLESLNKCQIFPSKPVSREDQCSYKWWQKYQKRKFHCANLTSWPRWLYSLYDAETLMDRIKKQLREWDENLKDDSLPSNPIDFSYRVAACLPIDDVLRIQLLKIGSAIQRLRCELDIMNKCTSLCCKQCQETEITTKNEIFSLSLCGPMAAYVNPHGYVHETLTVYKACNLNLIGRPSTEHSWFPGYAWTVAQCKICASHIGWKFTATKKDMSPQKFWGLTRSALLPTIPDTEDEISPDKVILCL

[4] = system: SH-SY5Y; assay: Cytotoxicity against human SH-SY5Y cells assessed as cell viability upto 100 uM measured after 72 hrs by CCK8 assay; type: functional, cell-based; conditions: dose microM <=100, time 72.0 hrs
[5] = system: SH-SY5Y; assay: Induction of apoptosis in human SH-SY5Y cells assessed as late apoptotic cells at 62.5 nM preincubated for 2 hrs followed by coincubation with Abeta42 and measured after 72 hrs by Annexin V-FITC/propidium iodide staining based flow cytometry (Rvb=3.5%); type: functional; conditions: time 74 hrs
[6] = system: SH-SY5Y; assay: Effect on tau protein expression in human SH-SY5Y cells assessed as reduction on phosphorylated tau threonine205 residue level at 62.5 to 500 nM pretreated for 2 hrs followed by Abeta42 coincubation for 72 hrs by Westernblot analysis; type: functional, cell-based; conditions: dose 62.5-500 nM, time 74.0 hrs
[7] = system: SH-SY5Y; assay: Effect on tau protein expression in human SH-SY5Y cells assessed as reduction on phosphorylated tau Ser396 residue level at 62.5 to 500 nM pretreated for 2 hrs followed by Abeta42 coincubation for 72 hrs by Westernblot analysis; type: functional, cell-based; conditions: dose 62.5-500 nM, time 74.0 hrs
[8] = system: SH-SY5Y; assay: Effect on tau protein expression in human SH-SY5Y cells assessed as reduction on phosphorylated tau Ser404 residue level at 62.5 to 500 nM pretreated for 2 hrs followed by Abeta42 coincubation for 72 hrs by Westernblot analysis; type: functional, cell-based; conditions: dose 62.5-500 nM, time 74.0 hrs
[9] = target: T2, Protein cereblon/Glycogen synthase kinase-3 beta (Homo sapiens, UniProt P49841+Q96SW2); assay: Protac activity at CRBN/GSK3beta in human SH-SY5Y cells assessed as GSK3beta degradation at 1 uM pretreated with pomalidomide for 2 hrs followed by compound addition and measured after 24 hrs; type: cell-based
Target sequence in this assay (P49841 whole entry, looked up): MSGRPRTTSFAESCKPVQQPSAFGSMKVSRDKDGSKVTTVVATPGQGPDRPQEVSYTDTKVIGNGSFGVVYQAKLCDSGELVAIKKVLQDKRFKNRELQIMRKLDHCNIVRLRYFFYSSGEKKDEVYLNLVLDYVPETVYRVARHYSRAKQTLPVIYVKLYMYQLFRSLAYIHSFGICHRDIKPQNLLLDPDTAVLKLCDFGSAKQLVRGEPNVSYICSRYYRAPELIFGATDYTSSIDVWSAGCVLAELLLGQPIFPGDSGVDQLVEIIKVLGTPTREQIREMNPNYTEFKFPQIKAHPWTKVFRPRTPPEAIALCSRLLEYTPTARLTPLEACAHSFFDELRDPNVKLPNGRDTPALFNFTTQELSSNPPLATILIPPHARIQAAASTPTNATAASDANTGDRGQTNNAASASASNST
Target sequence in this assay (Q96SW2 whole entry, looked up): as the sequence (Q96SW2 whole entry partner) above

[10] = target: T1, Protein cereblon/Glycogen synthase kinase-3 alpha; assay: Protac activity at CRBN/GSK3alpha in human SH-SY5Y cells assessed as induction of GSK3alpha protein degradation at 1 uM measured after 24 hrs; type: cell-based
Target sequence in this assay (P49840 2-483 limits assumed): as the sequence (P49840 2-483 limits assumed) above
Target sequence in this assay (Q96SW2 whole entry partner): as the sequence (Q96SW2 whole entry partner) above

[11] = target: Glycogen synthase kinase-3 alpha (Homo sapiens) (UniProt P49840); assay: Induction of GSK3alpha degradation in human SH-SY5Y cells assessed as maximum degradation at 1 uM measured after 9 hrs by western blot assay; type: cell-based
[12] = target: T1, Protein cereblon/Glycogen synthase kinase-3 alpha; assay: Protac activity at CRBN/GSK3alpha in human SH-SY5Y cells assessed as induction of GSK3alpha protein degradation measured after 24 hrs; type: cell-based
Target sequence in this assay (P49840 whole entry): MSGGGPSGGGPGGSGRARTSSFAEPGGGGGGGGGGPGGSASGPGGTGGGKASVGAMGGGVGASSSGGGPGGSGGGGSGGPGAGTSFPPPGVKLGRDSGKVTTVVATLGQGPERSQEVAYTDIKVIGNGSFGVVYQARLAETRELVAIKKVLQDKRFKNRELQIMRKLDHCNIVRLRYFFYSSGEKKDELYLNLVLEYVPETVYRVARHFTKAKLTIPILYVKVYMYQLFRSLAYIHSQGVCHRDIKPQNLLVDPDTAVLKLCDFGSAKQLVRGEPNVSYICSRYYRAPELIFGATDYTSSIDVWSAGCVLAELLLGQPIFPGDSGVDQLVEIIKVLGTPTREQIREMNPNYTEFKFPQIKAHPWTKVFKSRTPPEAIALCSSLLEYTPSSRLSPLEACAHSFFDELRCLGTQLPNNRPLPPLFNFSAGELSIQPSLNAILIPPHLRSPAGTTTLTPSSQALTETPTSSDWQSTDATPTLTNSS
Target sequence in this assay (Q96SW2 whole entry): as the sequence (Q96SW2 whole entry partner) above

[13] = target: T2, Protein cereblon/Glycogen synthase kinase-3 beta; assay: Protac activity at CRBN/GSK3beta in human SH-SY5Y cells assessed as induction of GSK3beta degradation measured after 24 hrs; type: cell-based
Target sequence in this assay (P49841 whole entry): as the sequence (P49841 whole entry, looked up) above
Target sequence in this assay (Q96SW2 whole entry): as the sequence (Q96SW2 whole entry partner) above

[14] = system: SH-SY5Y; assay: Induction of GSK3beta degradation in human SH-SY5Y cells assessed as maximum degradation at 1 uM measured after 9 hrs by western blot assay; type: cell-based
[15] = target: Glycogen synthase kinase-3 alpha (Homo sapiens) (UniProt P49840); assay: Induction of GSK3alpha degradation in human SH-SY5Y cells assessed as recovery of GSK3alpha protein pretreated for 12 hrs followed by compound washout and measured upto 36 hrs by western blot assay; type: cell-based; conditions: time 48.0 hrs
[16] = system: SH-SY5Y; assay: Induction of GSK3beta degradation in human SH-SY5Y cells assessed as recovery of GSK3beta protein pretreated for 12 hrs followed by compound washout and measured upto 36 hrs by western blot assay; type: cell-based; conditions: time 48.0 hrs
[17] = target: T1, Protein cereblon/Glycogen synthase kinase-3 alpha; assay: Protac activity at CRBN/GSK3alpha in human SH-SY5Y cells assessed as GSK3alpha degradation at 1 uM pretreated with MG-132 for 2 hrs followed by compound addition and measured after 24 hrs; type: cell-based
Target sequence in this assay (P49840 2-483 limits assumed): as the sequence (P49840 2-483 limits assumed) above
Target sequence in this assay (Q96SW2 whole entry partner): as the sequence (Q96SW2 whole entry partner) above

[18] = Downregulation of GSK3beta expression in human SH-SY5Y cells accessed as fold change in GSK3beta expression at 1 uM measured after 4 hrs by proteomic analysis; type: functional
[19] = system: SH-SY5Y; assay: Induction of apoptosis in human SH-SY5Y cells assessed as necrotic cells at 62.5 nM preincubated for 2 hrs followed by coincubation with Abeta42 and measured after 72 hrs by Annexin V-FITC/propidium iodide staining based flow cytometry (Rvb=0.7%); type: functional; conditions: time 74 hrs
[20] = system: SH-SY5Y; assay: Induction of apoptosis in human SH-SY5Y cells assessed as necrotic cells at 125 nM preincubated for 2 hrs followed by coincubation with Abeta42 and measured after 72 hrs by Annexin V-FITC/propidium iodide staining based flow cytometry (Rvb=0.7%); type: functional; conditions: time 74 hrs
[21] = system: SH-SY5Y; assay: Induction of apoptosis in human SH-SY5Y cells assessed as late apoptotic cells at 125 nM preincubated for 2 hrs followed by coincubation with Abeta42 and measured after 72 hrs by Annexin V-FITC/propidium iodide staining based flow cytometry (Rvb=3.5%); type: functional; conditions: time 74 hrs
[22] = system: SH-SY5Y; assay: Induction of apoptosis in human SH-SY5Y cells assessed as early apoptotic cells at 125 nM preincubated for 2 hrs followed by coincubation with Abeta42 and measured after 72 hrs by Annexin V-FITC/propidium iodide staining based flow cytometry (Rvb=1%); type: functional; conditions: time 74 hrs
[23] = system: SH-SY5Y; assay: Induction of apoptosis in human SH-SY5Y cells assessed as necrotic cells at 250 nM preincubated for 2 hrs followed by coincubation with Abeta42 and measured after 72 hrs by Annexin V-FITC/propidium iodide staining based flow cytometry (Rvb=0.7%); type: functional; conditions: time 74 hrs
[24] = system: SH-SY5Y; assay: Induction of apoptosis in human SH-SY5Y cells assessed as live cells at 250 nM preincubated for 2 hrs followed by coincubation with Abeta42 and measured after 72 hrs by Annexin V-FITC/propidium iodide staining based flow cytometry (Rvb=94.8%); type: functional; conditions: time 74 hrs
[25] = system: SH-SY5Y; assay: Induction of apoptosis in human SH-SY5Y cells assessed as early apoptotic cells at 250 nM preincubated for 2 hrs followed by coincubation with Abeta42 and measured after 72 hrs by Annexin V-FITC/propidium iodide staining based flow cytometry (Rvb=1%); type: functional; conditions: time 74 hrs
[26] = system: Rattus norvegicus; assay: Antialzheimer activity against okadaic acid induced Sprague-Dawley rat assessed as reduction in escape latency time to hidden platform at 200 to 600 uM, iv measured upto 5 days by Morris water maze test; type: functional, organism-based; conditions: dose 200-600 µM, time day <=5
[27] = target: T1, Protein cereblon/Glycogen synthase kinase-3 alpha; assay: Protac activity at CRBN/GSK3alpha in human SH-SY5Y cells assessed as induction of GSK3alpha degradation at 0.1 uM measured after 24 hrs; type: cell-based
Target sequence in this assay (P49840 2-483 limits assumed): as the sequence (P49840 2-483 limits assumed) above
Target sequence in this assay (Q96SW2 whole entry partner): as the sequence (Q96SW2 whole entry partner) above

[28] = system: Rattus norvegicus; assay: Antialzheimer activity against hippocampal tissue of okadaic acid induced Sprague-Dawley rat assessed as reduction on GSK3beta protein level at 200 to 600 uM, iv by western blot assay; type: functional, organism-based; conditions: Hippocampus, dose 200-600 µM
[29] = system: Rattus norvegicus; assay: Antialzheimer activity against hippocampal tissue of okadaic acid induced Sprague-Dawley rat assessed as reduction on GSK3alpha protein level at 200 to 600 uM, iv by immunohistochemical staining based analysis; type: functional, organism-based; conditions: Hippocampus, dose 200-600 µM
[30] = system: Rattus norvegicus; assay: Antialzheimer activity against hippocampal tissue of okadaic acid induced Sprague-Dawley rat assessed as reduction on GSK3beta protein level at 200 to 600 uM, iv by immunohistochemical staining based analysis; type: functional, organism-based; conditions: Hippocampus, dose 200-600 µM
[31] = system: Rattus norvegicus; assay: Antialzheimer activity against hippocampal tissue of okadaic acid induced Sprague-Dawley rat assessed as reduction on tau protein level at 200 to 600 uM, iv by immunohistochemical staining based analysis; type: functional, organism-based; conditions: Hippocampus, dose 200-600 µM

Glycogen synthase kinase-3 alpha (Homo sapiens), sequence (P49840 2-483 limits assumed): as the sequence (P49840 2-483 limits assumed) above

- Activity [3]: inactive
- Activity [9]: inactive
- Activity [10]: 94.3%
- Activity [11]: Active
- DC50 [12]: 28.3 nM
- DC50 [13]: 34.2 nM
- Activity [15]: Active
- Activity [17]: inactive
- Activity [27]: 74.4%
SMILES: Nc1ncc(-c2ccc(S(=O)(=O)N3CCN(CCCCc4cn(CCOCCOCCOCCOCCOCCNc5cccc6c5C(=O)N(C5CCC(=O)NC5=O)C6=O)nn4)CC3)cc2)nc1C(=O)Nc1cccnc1 (stereo unspecified)
- Activity [1]: Dose-Dependent Effect
- Activity [2]: Dose-Dependent Effect
- Activity [4]: inactive
- Activity [5]: 14.3%
- Activity [6]: Dose-Dependent Effect
- Activity [7]: Dose-Dependent Effect
- Activity [8]: Dose-Dependent Effect
- Activity [14]: Active
- Activity [16]: Active
- fold change (FC) [18]: 0.33
- Activity [19]: 6.7%
- Activity [20]: 3.3%
- Activity [21]: 12.5%
- Activity [22]: 1.2%
- Activity [23]: 2.8%
- Activity [24]: 89.5%
- Activity [25]: 1.2%
- Activity [26]: inactive
- Activity [28]: Active
- Activity [29]: Active
- Activity [30]: Active
- Activity [31]: Active
